Measurements taken from patent US20250302974A1, “LECTIN-DRUG CONJUGATES” (UNICHEM LABORATORIES LIMITED, priority 2021, published 2025).
Square brackets hold non-standard residues; d marks the D form. Peptide text beside a SMILES is read from it. * marks the point of attachment. Dolaproine = CO[C@@H]([C@@H]1CCCN1)[C@@H](C)C(=O)O; Dil = CC[C@H](C)[C@H](NC)[C@@H](CC(=O)O)OC; X1 = C[C@@H](N*)[C@@H](O)c1ccccc1; NMeV = CN[C@H](C(=O)O)C(C)C

Legend:
[1] = system: ovarian cancer cell line (PA-1); assay: Cytotoxicity assay, cell titer glow luminescence, 72 h; type: cell-based; details: 72 h
Protocol: (§1) T-24 Cell line were cultured in McCoy's 5a Medium Modified supplemented with 10% FBS and the PA-1 Cell line was cultured in EMEM Media supplemented with 10% FBS. The assay was performed by plating 5,000 cells/well and incubated at 37° C. overnight. […] Each concentration was added in triplicate and media-only wells used as a control. After incubation for 72 h cell titer glow (Promega) reagent (50 μL) was added to each well and the plates shaken for 5 mins and the luminescence was recorded. Percent viability was determined by dividing luminescence of the treated well by the non-treated well and multiplying by 100. Data was analysed using non-linear regression with a logarithmic scale.
(§2) 5,000 cells/well were plated and incubated at 37° C. overnight. Conjugates/vehicle control dilutions were made in respective media and added to cells. Volume added: 50 uL to each well. Starting treatment concentration was 1 uM for Conjugate of formula 16 and 18, and control SEQ ID NO: 5 alone and 10% for vehicle control (1×PBS with 20% DMA) and then diluted 10-fold down for a total of 11 treatment dilutions. Each concentration was analysed in triplicates. Media-only wells was used as a control to calculate percent viability. Cell titer glow reagent (volume: 50 uL) was added to each well, the plate was shaken for 5 mins and the luminescence was recorded. Drug Treatment Time: 72 hours. Percent viability was calculated by dividing the luminescence signal obtained for each treated well by the untreated well (media-only control) and multiplying by 100.

[2] = system: human urinary bladder cancer cell line (T-24); assay: as above; type: cell-based; details: 72 h
Protocol: as §1, §2

PA-1 cells = assay: Cytotoxicity (cell titer glo, 72 h) ovarian cancer cell line PA-1; type: cell-based; details: Homo sapiens, PA-1 cell line
Protocol: as §1
(§3) 5,000 cells/well were plated and incubated at 37° C. overnight. Conjugates/vehicle control dilutions were made in respective media and added to cells. Volume added: 50 uL to each well. […] Each concentration was analysed in triplicates. […] Cell titer glow reagent (volume: 50 uL) was added to each well, the plate was shaken for 5 mins and the luminescence was recorded. […] Percent viability was calculated by dividing the luminescence signal obtained for each treated well by the untreated well (media-only control) and multiplying by 100.

KB cells = assay: MTT cytotoxicity assay, KB cervix; type: cell-based; details: Homo sapiens, 48 h
Protocol: (§4) The Untreated cells were used as Control. […] Cells were incubated for 3 h at 37° C. The supernatant was aspirated.
(§5) The % Cytotoxicity was calculated using the formula: […]
(§6) Selectivity Index was calculated using the formula:
(§7) SI=IC50 in Normal cell/IC50 in cancer cell.

PANC-1 cells = assay: MTT cytotoxicity assay, PANC-1 pancreatic; type: cell-based; details: Homo sapiens
Protocol: as §4, §5, §6, §7

U251 MG cells = assay: MTT cytotoxicity assay, U251 MG brain; type: cell-based; details: Homo sapiens
Protocol: as §4, §5, §6, §7

A549 Lungs = assay: Cytotoxic effect by MTT assay, 48 h; details: for Percent cytotoxicity wrt control: 48 h
Protocol: (§8) Cells were treated with Test Items at various concentrations (0.0001 μM-10 μM) for 48 h. The cells corresponding to Positive Control group were treated with Doxorubicin at a concentration ranging from 0.1 μM-100 μM. The Untreated cells were used as Control. After 48 h of incubation, the effect of Test Items on cytotoxicity of cells was determined by MTT assay, the plates were taken out and 20 μl of 5 mg/m1 of MTT 3-(4,5-dimethythiazol-2-yl)-2,5-diphenyl tetrazolium bromide solution was added to all the wells. Cells were incubated for 3 h at 37° C. The supernatant was aspirated. 150 μl of DMSO was added to each well to dissolve formazan crystals. The absorbance of each well was then read at 540 nm using Synergy HT micro plate reader.
(§9) The % Cytotoxicity was calculated using the formula:
(§10) Where, X=Absorbance of cells treated with Test Item; R=Absorbance of Control cells (Untreated cells maintained in growth medium only).
as §6, §7
(§11) Activity scores of the Selective Index values were categorized as: • Not selective (SI value ≤1) • Moderately selective (1<SI value <5) • Selective (SI value ≥5)

PANC-1 Pancreatic = assay: Cytotoxic effect by MTT assay, 48 h; details: for Percent cytotoxicity wrt control: 48 h
Protocol: as §8, §9, §10, §6, §7, §11

PA-1 Ovary = assay: Cytotoxic effect by MTT assay, 48 h; details: for Percent cytotoxicity wrt control: 48 h
Protocol: as §8, §9, §10, §6, §7, §11

MG-63 Bone = assay: Cytotoxic effect by MTT assay, 48 h; details: for Percent cytotoxicity wrt control: 48 h
Protocol: as §8, §9, §10, §6, §7, §11

AGS Stomach = assay: Cytotoxic effect by MTT assay, 48 h; details: read-out: IC50 Values; AGS Stomach, after 48 h of treatment
Protocol: as §8, §9, §10, §6, §7, §11

KB Cervix = assay: Cytotoxic effect by MTT assay, 48 h; details: for Percent cytotoxicity wrt control: KB, 48 h
Protocol: as §8, §9, §10, §6, §7, §11

HT29 Colon = assay: Cytotoxic effect by MTT assay, 48 h; details: read-out: IC50 Values; HT29 Colon, after 48 h of treatment
Protocol: as §8, §9, §10, §6, §7, §11

T-24 cells = assay: Cytotoxicity (cell titer glo, 72 h) human urinary bladder cancer cell line T-24; type: cell-based; details: T-24 cell line
Protocol: as §1, §3

PBMC Normal = assay: Cytotoxic effect by MTT assay, 48 h; details: for Percent cytotoxicity wrt control: PBMC, 48 h
Protocol: as §8, §9, §10

In the case of CC[C@H](C)[C@@H]([C@@H](CC(=O)N1CCC[C@H]1[C@H](OC)[C@@H](C)C(=O)N[C@H](C)[C@@H](O)c1ccccc1)OC)N(C)C(=O)[C@@H](NC(=O)[C@@H](NC)C(C)C)C(C)C [MMAE, monomethyl auristatin E] (H-[NMeV]V[Dil][Dolaproine]-X1), the IC50 [1] is reported as 3.23 nM, the IC50 [2] is reported as 0.24 nM and the IC50 (PA-1 cells) is reported as 3.23 nM. For the same compound, the cytotoxicity at 0.0001 µM (KB cells; 0.0001 μm, read-out: Percent cytotoxicity wrt control) was 90.5%, the cytotoxicity at 0.001 µM (KB cells; 0.001 μm, read-out: Percent cytotoxicity wrt control) was 95.8% and the cytotoxicity at 0.01 µM (KB cells; 0.01 μm, read-out: Percent cytotoxicity wrt control) was 96.1%. For the same compound, the cytotoxicity at 0.1 µM (KB cells; 0.1 μm, read-out: Percent cytotoxicity wrt control) was 96.3%, the cytotoxicity at 1 µM (KB cells; 1 μm, read-out: Percent cytotoxicity wrt control) was 96.2% and the cytotoxicity at 10 µM (KB cells; 10 μm, read-out: Percent cytotoxicity wrt control) was 96.3%. The IC50 (KB cells) was 0.1 nM, the IC50 (PANC-1 cells; PANC-1, 48 h) was 1.5 nM and the cytotoxicity at 0.0001 µM (PANC-1 cells; PANC-1, 0.0001 μm, 48 h, read-out: Percent cytotoxicity wrt control) was 38.1%. It also gave a cytotoxicity at 0.001 µM (PANC-1 cells; PANC-1, 0.001 μm, 48 h, read-out: Percent cytotoxicity wrt control) of 41%, a cytotoxicity at 0.01 µM (PANC-1 cells; PANC-1, 0.01 μm, 48 h, read-out: Percent cytotoxicity wrt control) of 64.1% and a cytotoxicity at 0.1 µM (PANC-1 cells; PANC-1, 0.1 μm, 48 h, read-out: Percent cytotoxicity wrt control) of 67.7%. The cytotoxicity at 1 µM (PANC-1 cells; PANC-1, 1 μm, 48 h, read-out: Percent cytotoxicity wrt control) was 77.1%, the cytotoxicity at 10 µM (PANC-1 cells; PANC-1, 10 μm, 48 h, read-out: Percent cytotoxicity wrt control) was 69.7% and the cytotoxicity at 0.0001 µM (U251 MG cells; U-251, 0.0001 μm, 48 h, read-out: Percent cytotoxicity wrt control) was 77.8%. It also gave a cytotoxicity at 0.001 µM (U251 MG cells; U-251, 0.001 μm, 48 h, read-out: Percent cytotoxicity wrt control) of 52.5%, a cytotoxicity at 0.01 µM (U251 MG cells; U-251, 0.01 μm, 48 h, read-out: Percent cytotoxicity wrt control) of 58.6% and a cytotoxicity at 0.1 µM (U251 MG cells; U-251, 0.1 μm, 48 h, read-out: Percent cytotoxicity wrt control) of 63.1%. The cytotoxicity at 1 µM (U251 MG cells; U-251, 1 μm, 48 h, read-out: Percent cytotoxicity wrt control) was 64.7%, the cytotoxicity at 10 µM (U251 MG cells; U-251, 10 μm, 48 h, read-out: Percent cytotoxicity wrt control) was 71% and the IC50 (U251 MG cells; U-251, 48 h) was 0.2 nM. The “Percent cytotoxicity wrt control” value (A549 Lungs; A549, 0.0001 μM) was 27.9%, the “Percent cytotoxicity wrt control” value (A549 Lungs; A549, 0.001 μM) was 39.3% and the “Percent cytotoxicity wrt control” value (A549 Lungs; A549, 0.1 μM) was 58.8%. For the same compound, the “Percent cytotoxicity wrt control” value (A549 Lungs; A549, 1 μM) was 83.6%, the “Percent cytotoxicity wrt control” value (A549 Lungs; A549, 10 μM) was 75.8% and the IC50 (A549 Lungs; read-out: IC50 Values, A549 Lungs, after 48 h of treatment) was 10 nM. The “Percent cytotoxicity wrt control” value (PANC-1 Pancreatic; PANC-1, 0.0001 μM) was 38.1%, the “Percent cytotoxicity wrt control” value (PANC-1 Pancreatic; PANC-1, 0.001 μM) was 41% and the “Percent cytotoxicity wrt control” value (PANC-1 Pancreatic; PANC-1, 0.01 μM) was 64.1%. For the same compound, the “Percent cytotoxicity wrt control” value (PANC-1 Pancreatic; PANC-1, 0.1 μM) was 67.7%, the “Percent cytotoxicity wrt control” value (PANC-1 Pancreatic; PANC-1, 10 μM) was 69.7% and the IC50 (PANC-1 Pancreatic; read-out: IC50 Values, PANC-1 Pancreatic, after 48 h of treatment) was 1.5 nM. For the same compound, the “Percent cytotoxicity wrt control” value (PA-1 Ovary; PA-1, 0.0001 μM) was 13.4%, the “Percent cytotoxicity wrt control” value (PA-1 Ovary; PA-1, 0.001 μM) was 57.5% and the “Percent cytotoxicity wrt control” value (PA-1 Ovary; PA-1, 0.01 μM) was 50%. For the same compound, the “Percent cytotoxicity wrt control” value (PA-1 Ovary; PA-1, 0.1 μM) was 57.5%, the “Percent cytotoxicity wrt control” value (PA-1 Ovary; PA-1, 1 μM) was 61.7% and the “Percent cytotoxicity wrt control” value (PA-1 Ovary; PA-1, 10 μM) was 58.3%. The IC50 (PA-1 Ovary; read-out: IC50 Values, PA-1 Ovary, after 48 h of treatment) was 30.1 nM, the “Percent cytotoxicity wrt control” value (MG-63 Bone; MG-63, 0.0001 μM) was 81.7% and the “Percent cytotoxicity wrt control” value (MG-63 Bone; MG-63, 0.001 μM) was 85.5%. The “Percent cytotoxicity wrt control” value (MG-63 Bone; MG-63, 0.01 μM) was 86.2%, the “Percent cytotoxicity wrt control” value (MG-63 Bone; MG-63, 0.1 μM) was 87.4% and the “Percent cytotoxicity wrt control” value (MG-63 Bone; MG-63, 1 μM) was 85.3%. The “Percent cytotoxicity wrt control” value (MG-63 Bone; MG-63, 10 μM) was 82.3%, the IC50 (MG-63 Bone; read-out: IC50 Values, MG-63 Bone, after 48 h of treatment) was no more than 0.1 nM and the IC50 (AGS Stomach) was 1540 nM. For the same compound, the “Percent cytotoxicity wrt control” value (KB Cervix; 0.0001 μM) was 90.5%, the “Percent cytotoxicity wrt control” value (KB Cervix; 0.01 μM) was 96.1% and the “Percent cytotoxicity wrt control” value (KB Cervix; 0.1 μM) was 96.3%. The “Percent cytotoxicity wrt control” value (KB Cervix; 1 μM) was 96.2%, the “Percent cytotoxicity wrt control” value (KB Cervix; 10 μM) was 96.3% and the IC50 (KB Cervix; read-out: IC50 Values, KB Cervix, after 48 h of treatment) was no more than 0.1 nM. For the same compound, the IC50 (HT29 Colon) was 50 nM, the IC50 (T-24 cells) was 0.24 nM and the “Percent cytotoxicity wrt control” value (PBMC Normal; 0.0001 μM) was −2.7%. For the same compound, the “Percent cytotoxicity wrt control” value (PBMC Normal; 0.001 μM) was 29.8%, the “Percent cytotoxicity wrt control” value (PBMC Normal; 0.01 μM) was 34.3% and the “Percent cytotoxicity wrt control” value (PBMC Normal; 0.1 μM) was 34.1%. The “Percent cytotoxicity wrt control” value (PBMC Normal; 1 μM) was 26.6%, the “Percent cytotoxicity wrt control” value (PBMC Normal; 10 μM) was 32.5% and the IC50 (PBMC Normal; read-out: IC50 Values, PBMC Normal, after 48 h of treatment) was greater than 10000 nM.
